Reference: the supplement of paper PMC8960247
Where a name gives a salt, the structure may show the parent alone. ± gives the standard error.

Legend:
[1] = system: 621-102 (TSC2-deficient); assay: relative viability vs DMSO; higher = less cytotoxic; details: serum: 10% FBS, 72 h
[2] = system: 621-103 (TSC2-rescued); assay: as above; details: serum: 10% FBS, 72 h
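Also: immortalized renal angiomyolipoma cells stably carrying empty vector or TSC2, dosed in 384-well plates in DMEM, viability normalized to vehicle-treated wells within each plate.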

Compound	relative viability ([1]; 0.0001 µM) [%]	relative viability ([1]; 0.001 µM) [%]	relative viability ([1]; 0.01 µM) [%]	relative viability ([1]; 0.1 µM) [%]	relative viability ([1]; 1 µM) [%]	relative viability ([1]; 10 µM) [%]	relative viability ([2]; 0.0001 µM) [%]	relative viability ([2]; 0.001 µM) [%]	relative viability ([2]; 0.01 µM) [%]	relative viability ([2]; 0.1 µM) [%]	relative viability ([2]; 1 µM) [%]	relative viability ([2]; 10 µM) [%]
Nc1cc(C(Cl)=C(Cl)Cl)c(S(N)(=O)=O)cc1S(N)(=O)=O [Clorsulon]	109 ± 2.7	111.6 ± 0.7	107 ± 1.5	101 ± 2.9	98.4 ± 1.1	106 ± 1.2	81.5 ± 3.3	86.2 ± 4	73.8 ± 6.7	88.2 ± 12	91.8 ± 5.8	79.6 ± 10
CN1CCN(C2=Nc3cc(Cl)ccc3Nc3ccccc32)CC1 [Clozapine]	100 ± 1.7	108 ± 1.1	105.2 ± 0.32	104 ± 2.2	94.53 ± 0.49	98.1 ± 3.2	101.3 ± 0.79	113 ± 2.2	109 ± 1.1	105 ± 0.64	109 ± 0.24	92.73 ± 0.46
CC1=C2C[C@H]3[C@@H](CC=C4C[C@@H](O)CC[C@@]43C)[C@@H]2CC[C@]12O[C@@H]1C[C@H](C)CN[C@H]1[C@H]2C [Cyclopamine]	107 ± 4	95.64 ± 0.15	99.7 ± 0.74	103 ± 1.3	112.9 ± 0.35	95.49 ± 0.81	100 ± 1.7	101 ± 1.4	98.16 ± 0.86	100.3 ± 0.2	99.22 ± 0.46	98.9 ± 2.2
N#CCNC(=O)c1ccc(-c2ccnc(Nc3ccc(N4CCOCC4)cc3)n2)cc1 [Cyt387]	101 ± 5.9	109 ± 4.2	110 ± 1	113 ± 1.4	104 ± 0.75	73.3 ± 2.2	115 ± 0.87	105.2 ± 0.63	110 ± 1.1	110.2 ± 0.81	106 ± 3.2	83.38 ± 0.51
Nc1ccn([C@@H]2O[C@H](CO)[C@@H](O)[C@@H]2O)c(=O)n1 [Cytarabine (Cytosar-U)]	88.2 ± 4	93.49 ± 0.71	96.2 ± 2.2	89.35 ± 0.62	74.5 ± 2.8	49.4 ± 1.1	115 ± 4.8	106 ± 4.1	110 ± 0.82	105.2 ± 0.25	88.313 ± 0.062	38 ± 0.93
C[C@H](NC(=O)Cc1cc(F)cc(F)c1)C(=O)N[C@H](C(=O)OC(C)(C)C)c1ccccc1 [DAPT (GSI-IX)]	104 ± 4.3	99.1 ± 1.5	100 ± 2.3	97.82 ± 0.41	97.7 ± 4.1	97.1 ± 5.9	94.6 ± 6.5	105.2 ± 0.68	103.7 ± 0.49	101.4 ± 0.89	97.2 ± 2.8	98.2 ± 1.4
C[C@]12CC[C@H](O)CC1=CC[C@@H]1[C@@H]2CC[C@]2(C)C(=O)CC[C@@H]12 [DHEA]	105.05 ± 0.093	105 ± 1.6	99.6 ± 3.3	104 ± 2.9	97.2 ± 3.6	107 ± 1.8	73.1 ± 4.3	81.7 ± 1.7	80.2 ± 3.5	86.4 ± 7	79 ± 6	71.2 ± 8.4
CC(C)(C)OC(=O)N[C@H]1CCCCC/C=C\[C@@H]2C[C@@]2(C(=O)NS(=O)(=O)C2CC2)NC(=O)[C@@H]2C[C@@H](OC(=O)N3Cc4cccc(F)c4C3)CN2C1=O [Danoprevir]	105 ± 3.4	111 ± 3.4	113 ± 1.2	114 ± 3.5	97.9 ± 4.1	105.7 ± 0.94	100.3 ± 0.43	104.2 ± 0.88	101 ± 3.4	101.8 ± 0.53	98.14 ± 0.84	99.4 ± 1.5
Cc1nc(Nc2ncc(C(=O)Nc3c(C)cccc3Cl)s2)cc(N2CCN(CCO)CC2)n1 [Dasatinib]	71.7 ± 5.2	85.1 ± 7.2	70.7 ± 7.3	67.6 ± 4.7	67.5 ± 5.2	49.9 ± 2.6	92.9 ± 1.8	79 ± 2	74.3 ± 4.4	73.9 ± 5.5	61.2 ± 4.1	47.4 ± 2
CN(C)CCOC(c1ccccc1)c1ccccc1 [Diphenhydramine HCl]	105 ± 6	97.7 ± 7.7	99.9 ± 7.9	110 ± 1.5	91.1 ± 2.4	101 ± 4.7	89.4 ± 6.2	82.9 ± 10	106.2 ± 0.96	97.3 ± 2.9	97.6 ± 1.7	99.2 ± 1.8
OCCN(CCO)c1nc(N2CCCCC2)c2nc(N(CCO)CCO)nc(N3CCCCC3)c2n1 [Dipyridamole]	102 ± 3	98.3 ± 2.2	101.5 ± 1	95.2 ± 2.5	96.7 ± 2.7	93.4 ± 8.5	101 ± 2.4	103.1 ± 0.96	103 ± 2.1	104 ± 5.4	101 ± 6.3	101 ± 1.5
CC(=O)O[C@@]12CO[C@@H]1C[C@H](O)[C@@]1(C)C(=O)[C@H](O)C3=C(C)[C@@H](OC(=O)[C@H](O)[C@@H](NC(=O)OC(C)(C)C)c4ccccc4)C[C@@](O)([C@@H](OC(=O)c4ccccc4)[C@H]21)C3(C)C [Docetaxel]	36.3 ± 1.5	32.17 ± 0.058	33.5 ± 1.1	32.5 ± 0.43	31.8 ± 0.54	41.7 ± 1.1	57 ± 0.81	50.6 ± 1	42.9 ± 1.7	33.2 ± 0.49	35.55 ± 0.17	55.5 ± 2
O=c1[nH]c2ccccc2n1CCCN1CCC(n2c(=O)[nH]c3cc(Cl)ccc32)CC1 [Domperidone (Motilium)]	102.7 ± 0.59	96 ± 10	95.3 ± 3.6	106 ± 1.3	98.8 ± 1.5	90.8 ± 2.7	99.17 ± 0.87	93.61 ± 0.19	103.3 ± 0.16	110 ± 2	101.1 ± 0.98	96.7 ± 2
COc1cc2c(cc1OC)C(=O)C(CC1CCN(Cc3ccccc3)CC1)C2 (stereo unspecified) [Donepezil HCl]	96.2 ± 3.9	108 ± 4.1	103.6 ± 0.26	111 ± 1.3	101.6 ± 0.44	86.8 ± 1.3	93.1 ± 3	105 ± 2.5	102 ± 4.3	106 ± 1.8	104 ± 3.4	93.21 ± 0.93
NCCc1ccc(O)c(O)c1 [Dopamine HCl]	97.5 ± 9.6	112 ± 3.6	107 ± 3	105 ± 2.4	89.7 ± 7.8	74.1 ± 1.9	102.3 ± 0.35	99.6 ± 4.5	99 ± 1.9	100.1 ± 1	92.8 ± 2	95.4 ± 3.1
CCN[C@H]1C[C@H](C)S(=O)(=O)c2sc(S(N)(=O)=O)cc21 [Dorzolamide HCl]	98.73 ± 0.8	104.2 ± 0.95	108 ± 1.7	106.3 ± 0.82	96.9 ± 2.5	103 ± 3.9	99 ± 2.7	103 ± 3.2	103 ± 1.3	103 ± 1.4	102 ± 3.7	97.53 ± 0.19
COc1cc2nc(N3CCN(C(=O)C4COc5ccccc5O4)CC3)nc(N)c2cc1OC (stereo unspecified) [Doxazosin mesylate]	101 ± 0.75	99.06 ± 0.17	102.2 ± 0.51	100 ± 2.2	99.87 ± 0.89	95.9 ± 2.9	98.4 ± 1.8	95.8 ± 1.5	108 ± 2.6	101 ± 3.2	100.5 ± 0.52	88.314 ± 0.032
C[C@]12C=CC(=O)N[C@@H]1CC[C@@H]1[C@@H]2CC[C@]2(C)[C@@H](C(=O)Nc3cc(C(F)(F)F)ccc3C(F)(F)F)CC[C@@H]12 [Dutasteride (Avodart)]	118 ± 1.5	116 ± 1.9	115 ± 2.4	96.4 ± 1.7	107.7 ± 0.56	98.5 ± 2.3	104 ± 1.4	105 ± 2.2	100.7 ± 0.37	101 ± 1.4	101 ± 1.5	94.61 ± 0.46
